{"source": "paper PMC6767236", "about": "“Selective Cannabinoid 2 Receptor Agonists as Potential Therapeutic Drugs for the Treatment of Endotoxin-Induced Uveitis” (Molecules, 2019)", "key": {"[1]": {"target": "T1, human CB1R (Homo sapiens, UniProt P21554)", "T1 construct": "host or cells: CHO", "T1 sequence (P21554 whole entry)": "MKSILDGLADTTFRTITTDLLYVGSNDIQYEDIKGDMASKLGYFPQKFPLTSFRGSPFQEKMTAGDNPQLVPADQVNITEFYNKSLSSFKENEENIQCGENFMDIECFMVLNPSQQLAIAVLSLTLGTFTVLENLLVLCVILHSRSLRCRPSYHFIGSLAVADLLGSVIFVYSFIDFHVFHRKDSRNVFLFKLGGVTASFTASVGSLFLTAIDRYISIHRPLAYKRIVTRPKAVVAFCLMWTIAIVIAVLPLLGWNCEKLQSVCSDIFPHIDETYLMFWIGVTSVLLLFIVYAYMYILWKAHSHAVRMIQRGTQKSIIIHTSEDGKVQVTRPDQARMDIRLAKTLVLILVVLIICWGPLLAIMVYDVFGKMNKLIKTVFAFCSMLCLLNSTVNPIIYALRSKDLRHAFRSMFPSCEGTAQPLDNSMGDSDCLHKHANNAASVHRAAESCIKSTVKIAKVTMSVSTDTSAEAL", "test": "cAMP assay, CHO cells expressing human CB1R", "type": "cell-based", "details": "read-out: hCB1R: cAMP EC50", "procedure": "The effect of ligands on the forskolin-stimulated accumulation of cAMP was determined using the LANCE ULTRA cAMP kit as per the manufacturer’s instruction (Perkin-Elmer Life Sciences, Boston, MA, USA).\nFor human CB2R and CB1R, cAMP assays were performed using CHO cells stably expressing human CB2R or human CB1R (DiscoveRx, Fremont, CA, USA) using a cAMP-Nano-TRF detection kit (Roche Diagnostics, Penzberg, Germany). Cells were seeded 17–24 h prior to the experiment at a density of 3 × 10^4 cells per well in a black 96-well plate with clear flat bottom (Corning, Wiesbaden, Germany) and incubated in 5% CO2 at 37 °C in a humidified incubator. The growth medium was exchanged with Krebs Ringer bicarbonate buffer with 1 mmol/L 3-isobutyl-1-methylxanthine (IBMX), 0.1% fatty acid-free BSA and incubated at 30 °C for 60 min. Agonist was added to a final assay volume of 100 μL and the mixture was incubated for 30 min at 30 °C. The assay was stopped by the addition of 50 μL 3 × lysis reagent and shaken for 2 h at room temperature. The time-resolved fluorescence energy transfer was measured using an LF502 Nanoscan FLT (IOM, Berlin, Germany), equipped with a laser as excitation source. cAMP content was determined from the function of a standard curve spanning from 10 to 0.13 nmol/L cAMP. Efficacies are expressed as percent relative to 1 µM CP55940."}, "[2]": {"set-up": "method as in earlier work", "details": "* previously published, cited from earlier work"}}, "data": [{"smiles": "CNC(=O)[C@@H](NC(=O)c1cc(OCC2(C)COC2)c(C2CC2)cn1)C(C)(C)C", "note": "[RO6851228, 5-Cyclopropyl-N-[(2S)-3,3-dimethyl-1-(methylamino)-1-oxobutan-2-yl]-4-[(3-methyloxetan-3-yl)methoxy]pyridine-2-carboxamide]", "values": [{"measurement": "EC50", "setting": "[1]", "value": "> 10", "unit": "µM"}]}, {"smiles": "CC(C)(C)c1nc(N2CC[C@H](O)C2)c2nnn(Cc3nnnn3C3CC3)c2n1", "note": "[RO6871304, (3S)-1-{5-tert-butyl-3-[(1-cyclopropyl-1H-tetrazol-5-yl)methyl]-3H-[1,2, 3]triazolo[4,5-d]pyrimidin-7-yl}pyrrolidin-3-ol]", "values": [{"measurement": "Thermodynamic Solubility in FaSSIF (pH 6.5)", "setting": "[2]; FaSSIF pH 6.5", "value": 80, "unit": "μg/mL"}, {"measurement": "Thermodynamic Solubility in FeSSIF (pH 5.5)", "setting": "[2]; FeSSIF pH 5.5", "value": 273, "unit": "μg/mL"}, {"measurement": "Thermodynamic Solubility in Aqueous Buffer (pH 6.5)", "setting": "[2]; aqueous phosphate buffer pH 6.5", "value": 56, "unit": "μg/mL"}]}]}
